Source: patent US5556744A, “Methods and compositions for diagnosing and treating certain HIV infected patients” (The Trustees of the University of Pennsylvania, priority 1994, dated 1996)

Experiments:
HIV-IIIB viral isolate = assay: Neutralization assay (HIV-IIIB, Hut-78 cells, p24 antigen ELISA); type: cell-based, HIV-1 IIIB
Procedure: The H9 cell line (a cutaneous T lymphoma line) infected by HIV-IIIB [ATCC CRL 8543] was used in the neutralization assay. The H9 cell line infected by HIV-MN was used in the anti-syncytial assays. SupT1 and Hut78 cells were used as the target cell lines for the anti-syncytial and neutralization assays. All cell lines were obtained from the National Institutes of Health AIDS Repository (Bethesda, Md.).
In a neutralization assay, 20 μl of maternal sera samples was placed in 96 round bottom well plates at final dilutions of 1:10, 1:90 and 1:810 in RPMI. The HIV-IIIB viral isolate was diluted in RPMI to a TCID50 of 100 units/ml. Twenty μl of the virus solution was placed in each well and the plate was incubated for one hour at 4° C. Hut-78 cells were incubated with 2 μg/ml of polybrene for one hour at 37° C. in a CO2 incubator. The HUT-78 cells were washed and resuspended in fresh RPMI to a final concentration of 4×10^6 cells/ml. Ten μl of the cell suspension was added to each well and the plate was incubated for one hour in a 37° C., CO2 incubator.
Fifteen μl of the serum/cell/virus solution was aliquoted to a new plate containing 200 μl of fresh RPMI and incubated for 6 days. After 6 days, 100 μl was used to analyze for p24 antigen. The p24 capture ELISA assay kit (Coulter Corporation, Hialeah, Fla.) was used to perform the measurements.
Further, sera samples at the same dilutions as described above were tested for residual p24 core protein or antibody to insure the results were due only to viral infection.

[1] = system: maternal serum samples (antibodies); assay: ELISA peptide-binding of maternal sera, expanded peptide collection (Example 5); parameters: species or system human
Outline: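 Maternal sera diluted 1:50 or 1:500 in 1% BSA/PBS/0.05% Tween 20 were tested by ELISA on 10 μg/mL HIV IIIB gp120/gp41 peptides (~18 residues, ≥85% pure). Binding scored positive at experimental/control OD450nm ratio ≥2; HIV-seronegative human sera served as controls.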

Sequence	Neutralizing activity of non-transmission sera which reacted with the peptide (HIV-IIIB viral isolate; Example 5)	Number of samples which bound the peptide and possessed neutralization activity (HIV-IIIB viral isolate; sera which bound the peptide)	Number of non-transmission sera that reacted with the peptide ([1]; of 13 non-transmission sera)	Percent of samples which bound the peptide and possessed neutralization activity (HIV-IIIB viral isolate; sera which bound the peptide) [%]	Binding / reactivity of maternal sera to peptide (in words) ([1]; Example 5)
CFRPGGGDMRDNWREL [Peptide 466]	All 3 of these sera exhibited neutralizing activity	all of them	3		
TLPCASDAKAYDTEV [Peptide 93]		3		50	Differences in binding between the transmission and non-transmission groups are noted
